Experimental findings from patent US9388179B2, “N-substituted indazole sulfonamide compounds with selective activity in voltage-gated sodium channels” (Merck Sharp & Dohme Corp., priority 2012, dated 2016) are described below.

Common to all, as to type: cell-based
The target of assay [1] is T1, human Nav1.5 channels stably expressed in HEK 293 cells (Homo sapiens, UniProt Q14524).
T1 construct: expressed in transfected cells; host or cells: HEK 293
Description: IonWorks Quattro automated patch-clamp, inactivated state block. Conditions: IonWorks technique. The protocol: (§1) For all electrophysiology experiments, offline analysis was used to correct for current rundown and to determine percent inhibition as a function of drug concentration. IC50 values were determined by fitting to the Hill equation.
(§2) Cell Based Assays for Nav 1.7 and Nav 1.5 Activity
(§3) Compounds were tested on human Nav1.7 and Nav1.5 channels stably expressed in HEK 293 cells. […] Cells were sealed on a planar substrate using the Population Patch […] (PPC) technology. Electrical access was obtained using both nystatin and amphotericin. A double-pulse protocol was used for the determination of IC50 values for inactivated state block. Nav1.7 and Nav1.5 expressing cells were voltage clamped at −100 mV and −110 mV, respectively. A depolarizing prepulse to −10 mV (Nav1.7) or −30 mV (Nav1.5) for 1000 ms followed by a 10 ms repolarization to −100 mV (Nav1.7) or −110 mV (Nav1.5) was given to generate fractional channel inactivation of 50%, followed by a 10 ms test pulse to −10 mV (Nav1.7) or −30 mV (Nav1.5) to measure peak current in control conditions and after compound addition. The following recording solutions were used (mM). External: 150 NaCl, 2 CaCl2, 5 KCl, 1 MgCl2, 10 HEPES, 12 Dextrose; internal: 120 CsF, 30 CsCl, 10 EGTA, 5 HEPES, 5 NaF, 2 MgCl2.
(In general: In patch-clamp work, channel activity is measured electrically.)

Assay [2] deals with T2, human Nav1.7 channels stably expressed in HEK 293 cells (Homo sapiens, UniProt Q15858).
T2 construct: expressed in transfected cells; host or cells: HEK 293
The assay is described as above. The settings on record: IonWorks technique; read-out: Nav 1.7 potency. The protocol:
as §1, §2, §3

In assay [3] the target is T1, human Nav1.5 channels stably expressed in HEK 293 cells. Nature of the assay: PatchXpress 7000 automated patch-clamp, inactivated state block. The settings on record: PatchXpress technique. The protocol: as §1
(§4) Sodium Current Measurements on the PatchXpress 7000®:
(§5) To measure inactivated state block of sodium channels, test compounds were characterized in an automated PatchXpress® assay (Molecular Devices) using a double-pulse protocol on human Nav1.7 and Nav1.5 channels stably expressed in HEK 293 cells. Cells were held at a potential 20 mV negative to V0.5 inact. An 8000 ms pre-pulse 7 mV positive to V0.5 inact was given followed by a hyperpolarizing 2 ms pulse to −120 mV and a 20 ms test pulse to −20 mV. Protocol was applied to cells in the absence, presence of compound and after washout. The temperature of PatchXpress instruments was maintained at 22° C. The following recording solutions were used. Internal solution (mM): 30 CsCl, 5 HEPES, 10 EGTA, 120 CsF, 5 NaF, 2 MgCl2. External solution (mM): 120 NMDG, 40 NaCl, 1 KCl, 0.5 MgCl2, 5 HEPES, 2.7 CaCl2.

The target in assay [4] is T2, human Nav1.7 channels stably expressed in HEK 293 cells. The description is as above. Conditions: PatchXpress technique; read-out: Nav 1.7 potency. The protocol: as §1, §4, §5

SMILES strings stand for the structures. Where only a bound is given, the exact number is not on record here.

T2 sequence (Q15858 whole entry): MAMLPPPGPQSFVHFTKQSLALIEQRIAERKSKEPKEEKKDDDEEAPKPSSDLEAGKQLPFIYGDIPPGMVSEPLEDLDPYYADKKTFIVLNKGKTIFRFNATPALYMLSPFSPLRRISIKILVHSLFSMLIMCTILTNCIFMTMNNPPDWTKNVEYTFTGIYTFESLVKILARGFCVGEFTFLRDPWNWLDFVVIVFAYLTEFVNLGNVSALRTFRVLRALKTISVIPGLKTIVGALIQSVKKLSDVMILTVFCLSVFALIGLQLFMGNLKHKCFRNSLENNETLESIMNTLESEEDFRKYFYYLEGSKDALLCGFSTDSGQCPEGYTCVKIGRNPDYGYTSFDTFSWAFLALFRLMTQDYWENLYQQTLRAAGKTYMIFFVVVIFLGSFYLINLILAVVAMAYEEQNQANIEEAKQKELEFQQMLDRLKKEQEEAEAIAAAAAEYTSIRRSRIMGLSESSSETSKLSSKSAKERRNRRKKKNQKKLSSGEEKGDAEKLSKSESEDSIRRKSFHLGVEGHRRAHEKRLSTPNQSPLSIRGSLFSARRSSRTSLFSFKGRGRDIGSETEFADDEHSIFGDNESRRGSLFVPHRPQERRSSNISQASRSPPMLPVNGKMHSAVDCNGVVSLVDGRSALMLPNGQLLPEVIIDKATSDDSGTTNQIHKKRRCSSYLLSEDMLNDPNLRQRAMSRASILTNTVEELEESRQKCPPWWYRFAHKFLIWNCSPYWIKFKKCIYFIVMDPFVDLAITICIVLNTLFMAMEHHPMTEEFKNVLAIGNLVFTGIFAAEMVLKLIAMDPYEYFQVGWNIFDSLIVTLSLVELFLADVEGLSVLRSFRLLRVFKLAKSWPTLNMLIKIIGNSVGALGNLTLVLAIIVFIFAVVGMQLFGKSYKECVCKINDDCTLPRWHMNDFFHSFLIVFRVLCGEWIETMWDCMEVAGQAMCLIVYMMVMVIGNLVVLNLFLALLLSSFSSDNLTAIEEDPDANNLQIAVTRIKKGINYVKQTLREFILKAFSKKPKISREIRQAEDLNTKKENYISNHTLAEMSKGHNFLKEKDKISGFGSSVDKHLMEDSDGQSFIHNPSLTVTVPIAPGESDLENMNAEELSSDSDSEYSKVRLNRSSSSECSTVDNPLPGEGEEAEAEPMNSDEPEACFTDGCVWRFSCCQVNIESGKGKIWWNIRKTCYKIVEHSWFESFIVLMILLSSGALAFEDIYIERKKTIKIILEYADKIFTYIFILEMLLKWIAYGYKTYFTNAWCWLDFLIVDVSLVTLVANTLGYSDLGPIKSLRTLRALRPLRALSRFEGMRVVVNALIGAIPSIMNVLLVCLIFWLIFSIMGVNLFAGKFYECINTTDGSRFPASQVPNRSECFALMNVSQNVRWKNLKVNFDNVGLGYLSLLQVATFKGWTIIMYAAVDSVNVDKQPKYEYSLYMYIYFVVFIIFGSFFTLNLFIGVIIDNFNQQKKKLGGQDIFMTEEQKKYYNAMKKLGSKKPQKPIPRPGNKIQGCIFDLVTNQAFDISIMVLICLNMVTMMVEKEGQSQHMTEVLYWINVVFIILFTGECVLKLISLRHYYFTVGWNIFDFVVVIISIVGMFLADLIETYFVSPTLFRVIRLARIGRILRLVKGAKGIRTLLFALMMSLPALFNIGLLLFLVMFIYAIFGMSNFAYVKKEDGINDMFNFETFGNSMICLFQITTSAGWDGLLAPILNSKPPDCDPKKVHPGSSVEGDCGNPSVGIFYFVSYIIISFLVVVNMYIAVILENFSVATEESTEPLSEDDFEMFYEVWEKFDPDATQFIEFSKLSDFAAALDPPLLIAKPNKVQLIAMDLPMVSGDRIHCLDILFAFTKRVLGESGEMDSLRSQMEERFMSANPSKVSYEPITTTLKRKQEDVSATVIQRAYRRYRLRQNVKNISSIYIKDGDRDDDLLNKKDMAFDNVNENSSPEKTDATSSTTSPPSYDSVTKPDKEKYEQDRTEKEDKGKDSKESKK
T1 sequence (Q14524 whole entry): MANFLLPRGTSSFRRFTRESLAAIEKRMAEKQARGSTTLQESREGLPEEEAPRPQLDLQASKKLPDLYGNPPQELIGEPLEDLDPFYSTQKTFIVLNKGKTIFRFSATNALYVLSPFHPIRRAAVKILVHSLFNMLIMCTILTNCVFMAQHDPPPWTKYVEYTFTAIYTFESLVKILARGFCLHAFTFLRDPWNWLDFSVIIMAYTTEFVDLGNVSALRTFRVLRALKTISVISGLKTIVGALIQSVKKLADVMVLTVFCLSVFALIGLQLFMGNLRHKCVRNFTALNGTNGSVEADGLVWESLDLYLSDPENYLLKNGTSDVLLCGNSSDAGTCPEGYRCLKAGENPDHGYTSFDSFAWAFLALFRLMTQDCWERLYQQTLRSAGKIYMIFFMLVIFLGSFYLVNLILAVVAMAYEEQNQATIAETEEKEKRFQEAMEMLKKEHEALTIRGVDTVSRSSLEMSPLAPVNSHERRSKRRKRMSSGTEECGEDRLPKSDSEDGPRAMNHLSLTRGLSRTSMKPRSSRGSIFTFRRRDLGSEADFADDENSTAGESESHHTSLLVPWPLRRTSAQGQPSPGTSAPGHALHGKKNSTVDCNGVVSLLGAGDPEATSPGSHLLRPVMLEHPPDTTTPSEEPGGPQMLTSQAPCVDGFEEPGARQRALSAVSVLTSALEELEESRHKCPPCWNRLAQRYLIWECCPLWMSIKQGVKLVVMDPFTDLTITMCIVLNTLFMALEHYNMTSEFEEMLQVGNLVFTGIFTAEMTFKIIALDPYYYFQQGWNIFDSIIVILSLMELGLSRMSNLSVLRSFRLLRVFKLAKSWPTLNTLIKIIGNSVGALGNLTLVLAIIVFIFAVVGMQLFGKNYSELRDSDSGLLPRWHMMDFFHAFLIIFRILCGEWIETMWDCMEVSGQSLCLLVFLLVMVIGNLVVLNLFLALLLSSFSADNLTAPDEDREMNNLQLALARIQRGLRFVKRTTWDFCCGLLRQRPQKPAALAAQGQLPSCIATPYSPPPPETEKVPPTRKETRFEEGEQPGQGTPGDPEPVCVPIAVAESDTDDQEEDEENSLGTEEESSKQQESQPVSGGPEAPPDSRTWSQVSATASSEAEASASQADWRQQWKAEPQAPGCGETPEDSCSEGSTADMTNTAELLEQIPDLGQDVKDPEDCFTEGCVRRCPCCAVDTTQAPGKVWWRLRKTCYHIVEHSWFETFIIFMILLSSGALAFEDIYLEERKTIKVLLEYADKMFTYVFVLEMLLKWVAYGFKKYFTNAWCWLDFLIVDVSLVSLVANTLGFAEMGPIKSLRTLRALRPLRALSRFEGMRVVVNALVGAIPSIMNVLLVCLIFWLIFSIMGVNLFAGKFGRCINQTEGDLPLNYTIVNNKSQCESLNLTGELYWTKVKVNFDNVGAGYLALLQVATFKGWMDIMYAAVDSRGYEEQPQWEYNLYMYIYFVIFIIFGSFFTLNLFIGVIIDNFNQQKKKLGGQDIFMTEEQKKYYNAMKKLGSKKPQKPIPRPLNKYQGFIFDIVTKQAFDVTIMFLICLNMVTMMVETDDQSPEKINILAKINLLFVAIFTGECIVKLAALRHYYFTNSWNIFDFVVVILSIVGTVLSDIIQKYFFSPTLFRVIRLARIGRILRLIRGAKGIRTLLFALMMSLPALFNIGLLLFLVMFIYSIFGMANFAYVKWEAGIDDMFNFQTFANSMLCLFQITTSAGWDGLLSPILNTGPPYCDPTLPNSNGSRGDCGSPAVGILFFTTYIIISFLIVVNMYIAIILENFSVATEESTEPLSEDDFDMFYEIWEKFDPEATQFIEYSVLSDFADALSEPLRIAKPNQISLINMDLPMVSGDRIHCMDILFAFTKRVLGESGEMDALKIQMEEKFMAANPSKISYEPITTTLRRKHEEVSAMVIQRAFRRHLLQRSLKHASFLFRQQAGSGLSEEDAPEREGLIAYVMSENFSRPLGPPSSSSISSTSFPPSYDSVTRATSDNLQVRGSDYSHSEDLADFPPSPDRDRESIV

Turning to `NC/C=C/c1ccccc1Cn1ncc2cc(S(=O)(=O)Nc3ncns3)c(F)cc21` [Ex-5, (E)-1-(2-(3-aminoprop-1-en-1-yl)benzyl)-6-fluoro-N-(1,2,4-thiadiazol-5-yl)-1H-indazole-5-sulfonamide], the “Ratio 1.5:1.7 = Nav 1.5 potency (nM)/Nav1.7 potency (nM)” value (shortened to “Ratio 1.5:1.7 = Nav 1.5 potency”) in assay [1] is recorded as 963; in assay [3], 560. Further, the IC50 in assay [2] is 34 nM; in assay [4], 54 nM.
As for `O=S(=O)(Nc1ncns1)c1cc2cnn(Cc3ccccc3I)c2cc1F` [Ex-7, 6-fluoro-1-(2-iodobenzyl)-N-1,2,4-thiadiazol-5-yl-1H-indazole-5-sulfonamide], in assay [1], the “Ratio 1.5:1.7 = Nav 1.5 potency” value stood at 19. The IC50 in assay [2] was 340 nM.
For `O=S(=O)(Nc1ncns1)c1ccc2c(cnn2Cc2ccccc2-c2cccc3c2CCNC3)c1` [Ex-22, 1-[2-(1,2,3,4-tetrahydroisoquinolin-5-yl)benzyl]-N-1,2,4-thiadiazol-5-yl-1H-indazole-5-sulfonamide], the “Ratio 1.5:1.7 = Nav 1.5 potency” value is on record as 23 in assay [1] and over 10 in assay [3]. Also, the IC50 in assay [2] was found to be 1460 nM; in assay [4] it was 2900 nM.
The like results for `O=S(=O)(Nc1cccc(F)n1)c1cc2cnn(Cc3cccc4c3CNCC4)c2cc1F` [Ex-4, 6-fluoro-N-(6-fluoropyridin-2-yl)-1-((1,2,3,4-tetrahydroisoquinolin-8-yl)methyl)-1H-indazole-5-sulfonamide] were, in that order, 58, 64, 519 nM and 855 nM.
In the case of `O=S(=O)(Nc1ncns1)c1ccc2c(cnn2Cc2ccc(Cl)cc2C2=CCNCC2)c1` [Ex-18, 1-[4-chloro-2-(1,2,3,6-tetrahydropyridin-4-yl)benzyl]-N-1,2,4-thiadiazol-5-yl-1H-indazole-5-sulfonamide], the “Ratio 1.5:1.7 = Nav 1.5 potency” value in assay [1] came out at 42; in assay [3], 6. Also, the results for the IC50 in assay [2] and in assay [4] were 781 nM and 5210 nM, respectively.
The corresponding values for `O=S(=O)(Nc1ncns1)c1cc2cnn(Cc3ccccc3-c3cccc4c3CCNC4)c2cc1F` [Ex-10, 6-fluoro-1-[2-(1,2,3,4-tetrahydroisoquinolin-5-yl)benzyl]-N-1,2,4-thiadiazol-5-yl-1H-indazole-5-sulfonamide] are 30, 38, 1080 nM and 782 nM.
As for `NC1CCc2cccc(Cn3ncc4cc(S(=O)(=O)Nc5ncns5)c(F)cc43)c2C1` (single isomer, unassigned) [Ex-14, (S or R)-1-((7-amino-5,6,7,8-tetrahydronaphthalen-1-yl)methyl)-6-fluoro-N-(1,2,4-thiadiazol-5-yl)-1H-indazole-5-sulfonamide], the results for the “Ratio 1.5:1.7 = Nav 1.5 potency” value in assay [1] and in assay [3] were 1394 and 1480, respectively. Besides, the IC50 in assay [2] was determined as 24 nM; in assay [4], 21 nM.
The corresponding values for `NC/C=C/c1cc(Cl)ccc1Cn1ncc2cc(S(=O)(=O)Nc3ncns3)ccc21` [Ex-16, 1-{2-[(1E)-3-aminoprop-1-en-1-yl]-4-chlorobenzyl}-N-1,2,4-thiadiazol-5-yl-1H-indazole-5-sulfonamide] are 81, 32, 413 nM and 939 nM.
The corresponding values for `O=S(=O)(Nc1ncns1)c1cc2cnn(Cc3ccccc3)c2cc1F` [Ex-12, 1-benzyl-6-fluoro-N-(1,2,4-thiadiazol-5-yl)-1H-indazole-5-sulfonamide] are 15, 174, 936 nM and 495 nM.
For the molecule `O=S(=O)(Nc1ncns1)c1ccc2c(cnn2Cc2ccc(Cl)cc2C2=CC3CCC(C2)N3)c1` (stereo not shown) [Ex-21, 1-[2-(8-azabicyclo[3.2.1]oct-2-en-3-yl)-4-chlorobenzyl]-N-1,2,4-thiadiazol-5-yl-1H-indazole-5-sulfonamide], the “Ratio 1.5:1.7 = Nav 1.5 potency” value in assay [1] is listed as 26. Moreover, in assay [2], the IC50 was 1260 nM.
For `NC1CCc2cccc(Cn3ncc4cc(S(=O)(=O)Nc5ncns5)c(F)cc43)c2C1` (single isomer, unassigned) [Ex-13, (R or S)-1-((7-amino-5,6,7,8-tetrahydronaphthalen-1-yl)methyl)-6-fluoro-N-(1,2,4-thiadiazol-5-yl)-1H-indazole-5-sulfonamide], the results for the “Ratio 1.5:1.7 = Nav 1.5 potency” value in assay [1] and in assay [3] were 5406 and 2275, respectively. The values for the IC50 in assay [2] and in assay [4] were 6 nM and 7 nM, respectively.
Take `C[C@@H](c1cccc2c1CNCC2)n1ncc2cc(S(=O)(=O)Nc3ncns3)c(F)cc21` [Ex-64, (S)-6-fluoro-1-(1-(1,2,3,4-tetrahydroisoquinolin-8-yl)ethyl)-N-(1,2,4-thiadiazol-5-yl)-1H-indazole-5-sulfonamide]: the “Ratio 1.5:1.7 = Nav 1.5 potency” value stood at 42 in assay [1] and 36 in assay [3]. Moreover, the values for the IC50 in assay [2] and in assay [4] were 777 nM and 833 nM, respectively.
`CN(C)CCNC(=O)c1cccc(-c2cc(Cl)ccc2Cn2ncc3cc(S(=O)(=O)Nc4ncns4)ccc32)c1` [Ex-20, 5′-chloro-N-[2-(dimethylamino)ethyl]-2′-{[5-(1,2,4-thiadiazol-5-ylsulfamoyl)-1H-indazol-1-yl]methyl}biphenyl-3-carboxamide]: the “Ratio 1.5:1.7 = Nav 1.5 potency” value in assay [1] is recorded as 34. The IC50 in assay [2] was 960 nM.
For the molecule `NC/C=C/c1ccccc1Cn1ncc2cc(S(=O)(=O)Nc3ncns3)cc(Cl)c21` [Ex-63, 1-{2-[(1E)-3-aminoprop-1-en-1-yl]benzyl}-7-chloro-N-1,2,4-thiadiazol-5-yl-1H-indazole-5-sulfonamide], the “Ratio 1.5:1.7 = Nav 1.5 potency” value in assay [1] is over 19. Besides, the IC50 in assay [2] is 1720 nM.
Take `C[C@H](c1ccccc1C1CCNCC1)n1ncc2cc(S(=O)(=O)Nc3cccc(F)n3)c(F)cc21` [Ex-43, 6-fluoro-N-(6-fluoropyridin-2-yl)-1-[(1R)-1-(2-piperidin-4-ylphenyl)ethyl]-1H-indazole-5-sulfonamide]: the “Ratio 1.5:1.7 = Nav 1.5 potency” value in assay [3] is 16. Further, the IC50 in assay [4] is 584 nM.
The corresponding values for `O=S(=O)(Nc1cccc(F)n1)c1cc2cnn(Cc3cccc4c3CNC4)c2cc1F` [Ex-42, 1-(2,3-dihydro-1H-isoindol-4-ylmethyl)-6-fluoro-N-(6-fluoropyridin-2-yl)-1H-indazole-5-sulfonamide] are 36 and 825 nM.
The corresponding values for `C[C@H](c1cccc2c1CNCC2)n1ncc2cc(S(=O)(=O)Nc3ncc(Cl)s3)c(F)cc21` [Ex-54, N-(5-chloro-1,3-thiazol-2-yl)-6-fluoro-1-[(1R)-1-(1,2,3,4-tetrahydroisoquinolin-8-yl)ethyl]-1H-indazole-5-sulfonamide] are 50 and 137 nM.
Consider `C[C@H](c1cccc2c1CNCC2)n1cc2cc(S(=O)(=O)Nc3ncc(Cl)s3)c(F)cc2n1` [Ex-55, N-(5-chloro-1,3-thiazol-2-yl)-6-fluoro-2-[(1R)-1-(1,2,3,4-tetrahydro-isoquinolin-8-yl)ethyl]-2H-indazole-5-sulfonamide], for which, in assay [3], the “Ratio 1.5:1.7 = Nav 1.5 potency” value was 152. Besides, the IC50 in assay [4] was 111 nM.
The like results for `NCC#Cc1ccccc1Cn1ncc2cc(S(=O)(=O)Nc3nccs3)c(F)cc21` [Ex-29, 1-[2-(3-aminoprop-1-yn-1-yl)benzyl]-6-fluoro-N-1,3-thiazol-2-yl-1H-indazole-5-sulfonamide] were, in that order, 302 and 89 nM.
